The subject of the assay is T98G cells overexpressing TROY. Nature of the assay: TROY-induced transwell migration with erlotinib. Conditions: erlotinib (20 uM) 30 min prior to EGF (20 nM), 24 hours. Type of assay: cell-based, human. How it is done: FIG. 40 depicts the impact of EGFR suppression by erlotinib on TROY-induced glioma cell migration. Parental T98G (copGFP) and T98G cells overexpressing TROY (TROY WT) were […] for 16 hours and placed into a transwell migration chamber. Cells were then pretreated with erlotinib (20 uM) for 30 min prior to EGF stimulation (20 nM). Cell migration was after 24 hours (* p<0.01).
Thus, the capacity of TROY to stimulate glioma cell invasion and increase TMZ and IR resistance could rely on the formation of a TROY-EGFR signaling complex. This association could activate, or potentiate, shared signaling pathways survival pathways as well as activate distinct TROY signaling pathways that mediate TROY receptor specific functional activities. Therefore, therapeutic approaches targeting TROY and/or both receptors may yield increased therapeutic benefit.

As for `C#Cc1cccc(Nc2ncnc3cc(OCCOC)c(OCCOC)cc23)c1` [erlotinib], the “TROY-induced glioma cell migration” value is recorded as “suppresses TROY-induced glioma cell migration”.

The record behind these values is patent publication US10624895B2, “Methods of sensitizing a patient with glioma to a therapeutic agent by administering small hairpin RNA targeting PDZ-RHOGEF” (THE TRANSLATIONAL GENOMICS RESEARCH INSTITUTE, priority 2016, dated 2020).
